As a reminder, the Ki is a measure of affinity in units of concentration, obtained from inhibition or displacement.

The source of these data is ChEMBL document CHEMBL3886587, “Antagonists of prostaglandin EP3 receptor” (2016).

For this assay, the target named is T1, Prostaglandin E2 receptor EP3 subtype (Homo sapiens, UniProt P43115).
T1 sequence (P43115 whole entry): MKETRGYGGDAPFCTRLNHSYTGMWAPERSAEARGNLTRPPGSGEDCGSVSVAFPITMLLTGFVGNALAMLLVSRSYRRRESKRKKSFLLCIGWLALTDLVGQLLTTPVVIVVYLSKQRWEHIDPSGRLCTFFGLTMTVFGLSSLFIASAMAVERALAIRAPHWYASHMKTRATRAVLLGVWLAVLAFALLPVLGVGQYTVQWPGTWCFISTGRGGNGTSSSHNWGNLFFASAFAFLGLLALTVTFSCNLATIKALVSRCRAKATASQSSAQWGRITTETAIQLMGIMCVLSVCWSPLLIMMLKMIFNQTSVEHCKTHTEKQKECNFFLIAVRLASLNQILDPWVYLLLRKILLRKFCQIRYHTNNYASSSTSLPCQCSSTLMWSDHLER
Put plainly: EP3 Radioligand SPA Binding Assay: Test compounds were half log serially diluted in 100% DMSO (J. T. Baker #922401). 1 uL of each compound was added to appropriate wells of a 384-well plate (Matrix Cat #4322). Unlabeled PGE2 (Tocris Cat #2296) at a final concentration of 1 uM was used to determine non-specific binding. 1 uL of 100% DMSO (J. T. Baker #922401) was used to determine total binding. Millipore EP3 Chem1 membranes (prepared in-house from cell paste derived from the Millipore ChemiSCREEN Human Recombinant EP3 Prostanoid Receptor Calcium-Optimized Stable Cell Line (Millipore Cat #HTS092C. http://www.millipore.com/catalogue/item/hts092c)) were thawed and diluted in binding buffer (50 mM Hepes pH 7.4 (Lonza Cat #17-737), 5 mM MgCl2 (Sigma-M1028), and 0.1% BSA (Sigma A-7409)) to a final concentration of 1 ug/25 uL. 25 uL of diluted membranes were added to prepared compound plates. WGA coated PVT SPA Beads (Perkin Elmer Cat #RPNQ0060) were diluted in binding buffer to a concentration of 4 ug/ul, and 25 uL of the SPA bead mixture was then added to each well for a final assay concentration of 100 ug/well. [3H]-PGE2 (Perkin Elmer Cat #NET428) was diluted in binding buffer to a concentration of […], and 25 uL was added to all wells for a final assay concentration of 1.125 nM. Plates were incubated for 30 minutes at r.t. (approximately 25° C.) with shaking. […].

As for `Cn1ncc2c(F)cc(-c3ccc([C@@]4(C)CCCNC4=O)c(=O)[nH]3)cc21`, the Ki came out at 13.9 nM.
